Measured values published in patent publication US20080194632A1, “Novel Piperidine Derivatives as Chemokine Receptor Modulators Useful for the Treatment of Respiratory Diseases” (ASTRAZENECA AB, priority 2005, published 2008).

These compounds were tested against T1, human CCR1 (Homo sapiens, UniProt P32246) (assay: Human CCR1 binding assay ([125I] MIP-1α displacement)). Details: displacement of 33 pM [125I] MIP-1α from HEK-CCR1 membranes, pH 7.4, 1.5 hrs at room temperature.
T1 construct: expressed in transfected cells; membranes prepared
T1 sequence (P32246 1-355): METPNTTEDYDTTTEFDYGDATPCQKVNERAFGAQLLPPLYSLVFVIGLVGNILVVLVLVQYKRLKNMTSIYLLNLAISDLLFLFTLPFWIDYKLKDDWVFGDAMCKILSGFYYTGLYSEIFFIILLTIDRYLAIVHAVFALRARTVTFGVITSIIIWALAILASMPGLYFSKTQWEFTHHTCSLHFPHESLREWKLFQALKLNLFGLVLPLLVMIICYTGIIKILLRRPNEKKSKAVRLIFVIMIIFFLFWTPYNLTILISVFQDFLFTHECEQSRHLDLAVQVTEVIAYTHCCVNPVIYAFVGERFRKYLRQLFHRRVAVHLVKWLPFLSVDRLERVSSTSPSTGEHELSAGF
Experimental: HEK293 cells, from ECACC, stably expressing recombinant human CCR1 (HEK-CCR1) were used to prepare cell membranes containing CCR1. The membranes were stored at −70° C. The concentration of membranes of each batch was adjusted to 10% specific binding of 33 pM [^125I] MIP-1α.
100 μL of HEK-CCR1 membranes diluted in assay buffer pH 7.4 (137 mM NaCl (Merck, Cat No 1.06404), 5.7 mM Glucose (Sigma, Cat No G5400), 2.7 mM KCl (Sigma, Cat No P-9333), 0.36 mM NaH2PO4×H2O (Merck, Cat No 1.06346), 10 mM HEPES (Sigma, Cat No H3375), 0.1% (w/v) Gelatine (Sigma, Cat No G2625)) with the addition of 17500 units/L Bacitracin (Sigma, Cat No B 1025) were added to each well of the 96 well filter plate (0.45 μm opaque Millipore cat no MHVB N4550). 12 μL of compound in assay buffer, containing 10% DMSO, was added to give final compound concentrations of 1×10^−5.5-1×10^−9.5 M. 12 μl cold human recombinant MIP-1α (270-LD-050, R&D Systems, Oxford, UK), 10 nM final concentration in assay buffer supplemented with 10% DMSO, was included in certain wells (without compound) as non-specific binding control (NSB). 12 μl assay buffer with 10% DMSO was added to certain wells (without compound) to detect maximal binding (B0).
12 μL [^125I] MIP-1α, diluted in assay buffer to a final concentration in the wells of 33 pM, was added to all wells. The plates with lid were then incubated for 1.5 hrs at room temperature. After incubation the wells were emptied by vacuum filtration (MultiScreen Resist Vacuum Manifold system, Millipore) and washed once with 200 μl assay buffer. After the wash, all wells received an addition of 50 μL of scintillation fluid (OptiPhase “Supermix”, Wallac Oy, Turko, Finland). Bound [^125I] MIP-1α was measured using a Wallac Trilux 1450 MicroBeta counter. Window settings: Low 5-High 1020, 1-minute counting/well.
The following equation was used to calculate percent displacement.
Percent displacement=1−((cpm test−cpm NSB)/(cpm B0−cpm NSB)) where:
cpm test=average cpm in duplicate wells with membranes and compound and [^125I] MIP-1α cpm; NSB=average cpm in the wells with membranes and MIP-1α and [^125I] MIP-1α (non-specific binding) cpm; B0=average cpm in wells with membranes and assay buffer and [^125I] MIP-1α (maximum binding).
The molar concentration of compound producing 50% displacement (IC50) was derived using the Excel-based program XLfit (version 2.0.9) to fit data to a 4-parameter logistics function.

First: CCC(=O)Nc1ccc(O)cc1OC[C@@](C)(O)CNC1CCN(Cc2ccc(Cl)cc2)CC1 [Comparison 1]
Second: CC(=O)Nc1ccc(O)cc1OC[C@@](C)(O)CNC1CCN(Cc2ccc(Cl)cc2)CC1 [Comparison 2]
The IC50 of the first is 1.8-fold higher: 7 nM for the first, 3.9 nM for the second.

First: CC(=O)Nc1ccc(O)cc1OC[C@@H](O)CNC1CCN(Cc2ccc(Cl)cc2)CC1 [Comparison 8]
Second: CCC(=O)Nc1ccc(O)cc1OC[C@@H](O)CNC1CCN(Cc2ccc(Cl)cc2)CC1 [Comparison 9]
The IC50 of the first is 3-fold lower: 4.5 nM for the first, 13.6 nM for the second.

Going from `CCC(=O)Nc1cc(Cl)c(O)cc1OC[C@@](C)(O)CNC1CCN(Cc2ccc(Cl)cc2)CC1` [Example 1, N-{5-Chloro-2-[((2S)-3-{[1-(4-chlorobenzyl)piperidin-4-yl]amino}-2-hydroxy-2-methylpropyl)oxy]-4-hydroxyphenyl}propaneamide di-trifluoroacetate] to `CC(=O)Nc1cc(Cl)c(O)cc1OC[C@@](C)(O)CNC1CCN(Cc2ccc(Cl)cc2)CC1` [Example 2, N-{5-Chloro-2-[((2S)-3-{[1-(4-chlorobenzyl)piperidin-4-yl]amino}-2-hydroxy-2-methylpropyl)oxy]-4-hydroxyphenyl}acetamide di-trifluoroacetate], the IC50 rises from 0.4 nM to 0.7 nM (1.7-fold). The first is the more potent here.

Going from `CC(=O)Nc1cc(Cl)c(O)cc1OC[C@@H](O)CNC1CCN(Cc2ccc(Cl)cc2)CC1` [Example 8, N-{5-Chloro-2-[((2S)-3-{[1-(4-chlorobenzyl)piperidin-4-yl]amino}-2-hydroxypropyl)oxy]-4-hydroxyphenyl}acetamide di-trifluoroacetate] to `CCC(=O)Nc1cc(Cl)c(O)cc1OC[C@@H](O)CNC1CCN(Cc2ccc(Cl)cc2)CC1` [Example 9, N-{5-Chloro-2-[((2S)-3-{[1-(4-chlorobenzyl)piperidin-4-yl]amino}-2-hydroxylpropyl)oxy]-4-hydroxyphenyl}propaneamide di-trifluoroacetate], the IC50 rises from 1.6 nM to 2.7 nM (1.7-fold). The first is the more potent here.
